Data set [1] in a line: Assay (X) Chemical stability assessment by RP-UPLC. The class given is physicochemical. As to conditions: pH 8.15, 14 days at 37° C. vs 5° C., 333 μM.
Another data set addresses T1, glucagon receptor (Homo sapiens, UniProt P47871).
T1 construct: expressed in transfected cells
As to the kind of experiment: Assay (I) Glucagon activity (cAMP biosensor, FLIPR). The class given is cell-based.

Data on 6 molecules can be found in patent US9486506B2 (Novo Nordisk A/S, priority 2011, dated 2016).

Numbered stars: 1 amine (or outer) side, 2 acyl side, 3 side chain; on linkers, the order of the positions; unused ones are H or OH. Side chains are listed from the residue outwards. Peptide text beside a SMILES is read from it. * marks the point of attachment. C18 diacid = O=C(O)CCCCCCCCCCCCCCCCC(=O)*; C16 diacid = O=C(O)CCCCCCCCCCCCCCC(=O)*; γGlu = O=C(O)[C@H](CCC(=O)[*:2])N[*:1]; AEEA = NCCOCCOCC(=O)O

T1 sequence (P47871 26-477): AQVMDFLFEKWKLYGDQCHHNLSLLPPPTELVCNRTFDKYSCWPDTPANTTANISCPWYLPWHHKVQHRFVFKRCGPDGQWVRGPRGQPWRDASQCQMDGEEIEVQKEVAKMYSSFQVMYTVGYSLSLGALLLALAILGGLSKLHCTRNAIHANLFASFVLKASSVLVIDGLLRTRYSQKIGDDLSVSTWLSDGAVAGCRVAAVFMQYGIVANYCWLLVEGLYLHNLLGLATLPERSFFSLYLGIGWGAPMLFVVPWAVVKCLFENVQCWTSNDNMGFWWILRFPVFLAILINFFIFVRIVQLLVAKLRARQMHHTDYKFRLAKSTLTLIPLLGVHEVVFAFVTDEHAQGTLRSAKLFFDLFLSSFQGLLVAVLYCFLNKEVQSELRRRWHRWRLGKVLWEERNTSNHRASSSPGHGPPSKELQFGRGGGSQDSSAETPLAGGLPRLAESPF

With `CC(C)C[C@H](NC(=O)[C@H](Cc1ccc(O)cc1)NC(=O)[C@H](CCCNC(=N)N)NC(=O)[C@H](CO)NC(=O)[C@H](Cc1ccc(O)cc1)NC(=O)[C@H](CC(=O)O)NC(=O)[C@H](CO)NC(=O)[C@@H](NC(=O)[C@H](Cc1ccccc1)NC(=O)[C@@H](NC(=O)CNC(=O)[C@H](CCC(N)=O)NC(=O)[C@H](CO)NC(=O)[C@@H](N)Cc1c[nH]cn1)[C@@H](C)O)[C@@H](C)O)C(=O)N[C@@H](CCC(=O)O)C(=O)N[C@@H](CO)C(=O)N[C@@H](CCCNC(=N)N)C(=O)N[C@@H](CCCNC(=N)N)C(=O)N[C@@H](C)C(=O)N[C@@H](CCC(N)=O)C(=O)N[C@@H](CCC(=O)O)C(=O)N[C@@H](Cc1ccccc1)C(=O)N[C@H](C(=O)N[C@@H](CCCCNC(=O)CC[C@H](NC(=O)CC[C@H](NC(=O)COCCOCCNC(=O)COCCOCCNC(=O)CC[C@H](NC(=O)CCCCCCCCCCCCCCCCC(=O)O)C(=O)O)C(=O)O)C(=O)O)C(=O)N[C@@H](Cc1c[nH]c2ccccc12)C(=O)N[C@@H](CC(C)C)C(=O)N[C@@H](CC(C)C)C(=O)N[C@@H](CO)C(=O)N[C@H](C(=O)O)[C@@H](C)O)C(C)C` [Example 52, N^ε24-[(4S)-4-carboxy-4-[[(4S)-4-carboxy-4-[[2-[2-[2-[[2-[2-[2-[[(4S)-4-carboxy-4-(17-carboxyheptadecanoylamino)butanoyl]amino]ethoxy]ethoxy]acetyl]amino]ethoxy]ethoxy]acetyl]amino]butanoyl]amino]butanoyl]-[Arg12,Glu15,Glu21,Lys24,Leu27,Ser28]-Glucagon] (H-HSQGTFTSDYSRYLESRRAQEFVK([γGlu-γGlu-AEEA-AEEA-γGlu-C18 diacid])WLLST-OH), in data set [1], the “Chemical stability [Purity loss/14 days 37 C.]” value is on record as 6.3%. Besides, on glucagon receptor, a half-maximal response (EC50) required 0.289 nM.

Consider `CC(C)C[C@H](NC(=O)[C@H](Cc1ccc(O)cc1)NC(=O)[C@H](CCCNC(=N)N)NC(=O)[C@H](CO)NC(=O)[C@H](Cc1ccc(O)cc1)NC(=O)[C@H](CC(=O)O)NC(=O)[C@H](CO)NC(=O)[C@@H](NC(=O)[C@H](Cc1ccccc1)NC(=O)[C@@H](NC(=O)CNC(=O)[C@H](CCC(N)=O)NC(=O)[C@H](CO)NC(=O)[C@@H](N)Cc1c[nH]cn1)[C@@H](C)O)[C@@H](C)O)C(=O)N[C@@H](CC(=O)O)C(=O)N[C@@H](C)C(=O)N[C@@H](CCCNC(=N)N)C(=O)N[C@@H](CCCNC(=N)N)C(=O)N[C@@H](C)C(=O)N[C@@H](CCC(N)=O)C(=O)N[C@@H](CC(=O)O)C(=O)N[C@@H](Cc1ccccc1)C(=O)N[C@H](C(=O)N[C@@H](CCCCNC(=O)CC[C@H](NC(=O)CC[C@H](NC(=O)CC[C@H](NC(=O)CCCCCCCCCCCCCCC(=O)O)C(=O)O)C(=O)O)C(=O)O)C(=O)N[C@@H](Cc1c[nH]c2ccccc12)C(=O)N[C@@H](CC(C)C)C(=O)N[C@@H](CC(C)C)C(=O)N[C@@H](CO)C(=O)N[C@H](C(=O)O)[C@@H](C)O)C(C)C` [Example 72, N^ε24-[(4S)-4-carboxy-4-[[(4S)-4-carboxy-4-[[(4S)-4-carboxy-4-(15-carboxypentadecanoylamino)butanoyl]amino]butanoyl]amino]butanoyl]-[Arg12,Ala16,Lys24,Leu27,Ser28]-Glucagon] (H-HSQGTFTSDYSRYLDARRAQDFVK([γGlu-γGlu-γGlu-C16 diacid])WLLST-OH), for which, in data set [1], the “Chemical stability [Purity loss/14 days 37 C.]” value was 6.1%. For the same molecule, at glucagon receptor, the EC50 (as a rule, the concentration at which the effect is half-maximal) was determined as 0.016 nM.

Take `CC(C)C[C@H](NC(=O)[C@H](CC(=O)O)NC(=O)[C@H](CC(C)C)NC(=O)[C@H](Cc1ccc(O)cc1)NC(=O)[C@H](CCCNC(=N)N)NC(=O)[C@H](CO)NC(=O)[C@H](Cc1ccc(O)cc1)NC(=O)[C@H](CC(=O)O)NC(=O)[C@H](CO)NC(=O)[C@@H](NC(=O)[C@H](Cc1ccccc1)NC(=O)[C@@H](NC(=O)CNC(=O)[C@H](CCC(N)=O)NC(=O)[C@H](CO)NC(=O)[C@@H](N)Cc1c[nH]cn1)[C@@H](C)O)[C@@H](C)O)C(=O)N[C@@H](CCCNC(=N)N)C(=O)N[C@@H](CCCNC(=N)N)C(=O)N[C@@H](C)C(=O)N[C@@H](CCC(N)=O)C(=O)N[C@@H](CC(=O)O)C(=O)N[C@@H](Cc1ccccc1)C(=O)N[C@H](C(=O)N[C@@H](CCCCNC(=O)CC[C@H](NC(=O)CC[C@H](NC(=O)COCCOCCNC(=O)COCCOCCNC(=O)CC[C@H](NC(=O)CCCCCCCCCCCCCCCCC(=O)O)C(=O)O)C(=O)O)C(=O)O)C(=O)N[C@@H](Cc1c[nH]c2ccccc12)C(=O)N[C@@H](CC(C)C)C(=O)N[C@@H](CC(C)C)C(=O)N[C@H](C(=O)N[C@H](C(=O)O)[C@@H](C)O)[C@@H](C)O)C(C)C` [Example 19, N^ε24-[(4S)-4-carboxy-4-[[(4S)-4-carboxy-4-[[2-[2-[2-[[2-[2-[2-[[(4S)-4-carboxy-4-(17-carboxyheptadecanoylamino)butanoyl]amino]ethoxy]ethoxy]acetyl]amino]ethoxy]ethoxy]acetyl]amino]butanoyl]amino]butanoyl]-[Arg^12,Leu^16,Lys^24,Leu^27,Thr^28]-Glucagon] (H-HSQGTFTSDYSRYLDLRRAQDFVK([γGlu-γGlu-AEEA-AEEA-γGlu-C18 diacid])WLLTT-OH): in data set [1], the “Chemical stability [Purity loss/14 days 37 C.]” value stood at 4.3%. On glucagon receptor, it took 0.754 nM to reach a half-maximal effect (EC50).

For the molecule `CC(C)C[C@H](NC(=O)[C@H](CC(=O)O)NC(=O)[C@H](CC(C)C)NC(=O)[C@H](Cc1ccc(O)cc1)NC(=O)[C@H](CCCNC(=N)N)NC(=O)[C@H](CO)NC(=O)[C@H](Cc1ccc(O)cc1)NC(=O)[C@H](CC(=O)O)NC(=O)[C@H](CO)NC(=O)[C@@H](NC(=O)[C@H](Cc1ccccc1)NC(=O)[C@@H](NC(=O)CNC(=O)[C@H](CCC(N)=O)NC(=O)[C@H](CO)NC(=O)[C@@H](N)Cc1c[nH]cn1)[C@@H](C)O)[C@@H](C)O)C(=O)N[C@@H](CCCNC(=N)N)C(=O)N[C@@H](CCCNC(=N)N)C(=O)N[C@@H](C)C(=O)N[C@@H](CCC(N)=O)C(=O)N[C@@H](CC(=O)O)C(=O)N[C@@H](Cc1ccccc1)C(=O)N[C@H](C(=O)N[C@@H](CCCCNC(=O)CC[C@H](NC(=O)CC[C@H](NC(=O)CC[C@H](NC(=O)CCCCCCCCCCCCCCCCC(=O)O)C(=O)O)C(=O)O)C(=O)O)C(=O)N[C@@H](Cc1c[nH]c2ccccc12)C(=O)N[C@@H](CC(C)C)C(=O)N[C@@H](CC(C)C)C(=O)N[C@@H](CO)C(=O)N[C@H](C(=O)O)[C@@H](C)O)C(C)C` [Example 29, N^ε24-[(4S)-4-carboxy-4-[[(4S)-4-carboxy-4-[[(4S)-4-carboxy-4-(17-carboxyheptadecanoylamino)butanoyl]amino]butanoyl]amino]butanoyl]-[Arg^12,Leu^16,Lys^24,Leu^27,Ser^28]-Glucagon] (H-HSQGTFTSDYSRYLDLRRAQDFVK([γGlu-γGlu-γGlu-C18 diacid])WLLST-OH), in data set [1], the “Chemical stability [Purity loss/14 days 37 C.]” value came to 2.8%. Further, the midpoint of the response at glucagon receptor, the EC50, lay at 1.32 nM.

For the molecule `CC(C)C[C@H](NC(=O)[C@H](Cc1c[nH]c2ccccc12)NC(=O)[C@H](CCCCNC(=O)CC[C@H](NC(=O)CC[C@H](NC(=O)CC[C@H](NC(=O)CC[C@H](NC(=O)CCCCCCCCCCCCCCCCC(=O)O)C(=O)O)C(=O)O)C(=O)O)C(=O)O)NC(=O)[C@@H](NC(=O)[C@H](Cc1ccccc1)NC(=O)[C@H](CC(=O)O)NC(=O)[C@H](CCC(N)=O)NC(=O)[C@H](C)NC(=O)[C@H](CCCNC(=N)N)NC(=O)[C@H](CCCNC(=N)N)NC(=O)[C@@H](NC(=O)[C@H](CC(=O)O)NC(=O)[C@H](CC(C)C)NC(=O)[C@H](Cc1ccc(O)cc1)NC(=O)[C@H](CCCCN)NC(=O)[C@H](CO)NC(=O)[C@H](Cc1ccc(O)cc1)NC(=O)[C@H](CC(=O)O)NC(=O)[C@H](CO)NC(=O)[C@@H](NC(=O)[C@H](Cc1ccccc1)NC(=O)[C@@H](NC(=O)CNC(=O)[C@H](CCC(N)=O)NC(=O)[C@H](CO)NC(=O)[C@@H](N)Cc1c[nH]cn1)[C@@H](C)O)[C@@H](C)O)C(C)C)C(C)C)C(=O)N[C@@H](CC(C)C)C(=O)N[C@@H](CO)C(=O)N[C@H](C(N)=O)[C@@H](C)O` [Example 76, N^ε24-[(4S)-4-carboxy-4-[[(4S)-4-carboxy-4-[[(4S)-4-carboxy-4-[[(4S)-4-carboxy-4-(17-carboxyheptadecanoylamino)butanoyl]amino]butanoyl]amino]butanoyl]amino]butanoyl]-[Val16,Lys24,Leu27,Ser28]-Glucagon amide], the “Chemical stability [Purity loss/14 days 37 C.]” value in data set [1] is given as 5.5%. The molecule also yielded an EC50 at glucagon receptor of 0.268 nM.

`CC(C)C[C@H](NC(=O)[C@H](Cc1ccc(O)cc1)NC(=O)[C@H](CCCCN)NC(=O)[C@H](CO)NC(=O)[C@H](Cc1ccc(O)cc1)NC(=O)[C@H](CC(=O)O)NC(=O)[C@H](CO)NC(=O)[C@@H](NC(=O)[C@H](Cc1ccccc1)NC(=O)[C@@H](NC(=O)CNC(=O)[C@H](CCC(N)=O)NC(=O)[C@H](CO)NC(=O)[C@@H](N)Cc1c[nH]cn1)[C@@H](C)O)[C@@H](C)O)C(=O)N[C@@H](CC(=O)O)C(=O)N[C@@H](CCC(=O)O)C(=O)N[C@@H](CCCNC(=N)N)C(=O)N[C@@H](CCCNC(=N)N)C(=O)N[C@@H](C)C(=O)N[C@@H](CCC(N)=O)C(=O)N[C@@H](CC(=O)O)C(=O)N[C@@H](Cc1ccccc1)C(=O)N[C@H](C(=O)N[C@@H](CCCCNC(=O)CC[C@H](NC(=O)CC[C@H](NC(=O)COCCOCCNC(=O)COCCOCCNC(=O)CC[C@H](NC(=O)CCCCCCCCCCCCCCC(=O)O)C(=O)O)C(=O)O)C(=O)O)C(=O)N[C@@H](Cc1c[nH]c2ccccc12)C(=O)N[C@@H](CC(C)C)C(=O)N[C@@H](CC(C)C)C(=O)N[C@@H](CO)C(=O)N[C@H](C(=O)O)[C@@H](C)O)C(C)C` [Example 93, N^ε24-[(4S)-4-carboxy-4-[[(4S)-4-carboxy-4-[[2-[2-[2-[[2-[2-[2-[[(4S)-4-carboxy-4-(15-carboxypentadecanoylamino)butanoyl]amino]ethoxy]ethoxy]acetyl]amino]ethoxy]ethoxy]acetyl]amino]butanoyl]amino]butanoyl]-[Glu16,Lys24,Leu27,Ser28]-Glucagon] (H-HSQGTFTSDYSKYLDERRAQDFVK([γGlu-γGlu-AEEA-AEEA-γGlu-C16 diacid])WLLST-OH; N-terminus and C-terminus assumed): in data set [1], the “Chemical stability [Purity loss/14 days 37 C.]” value was 14%. This molecule also displayed an EC50 at glucagon receptor of 0.017 nM.
